The assay relates to CD2F1 mice, L1210 leukemia ip, survival T/C. Description: NCI In Vivo Anticancer Drug Screen. Data for tumor model L1210 Leukemia (intraperitoneal) in CD2F1 (CDF1) mice. As to conditions: higher = longer survival. In outline: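 Activity against a transplanted murine tumor was judged by comparing the compound group with a vehicle group. The outcome in the treated animals was divided by that in the controls.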

Where [1] appears, read: endpoint: mean survival time, dose: 100.0 mg/kg/injection, schedule: Q01DX009 (ip), vehicle: saline.
[2] abbreviates: endpoint: mean survival time, dose: 100.0 mg/kg/injection, schedule: Q01DX009 (ip), vehicle: saline with Tween-80.
Where [3] appears, read: endpoint: mean survival time, dose: 100.0 mg/kg/injection, schedule: Q04DX003 (ip), vehicle: saline with Tween-80.
Setting [4] is: endpoint: mean survival time, dose: 200.0 mg/kg/injection, schedule: Q01DX009 (ip), vehicle: saline with Tween-80.
The mark [5] stands for this setting: endpoint: mean survival time, dose: 200.0 mg/kg/injection, schedule: Q04DX003 (ip), vehicle: saline with Tween-80.
[6] abbreviates: endpoint: mean survival time, dose: 400.0 mg/kg/injection, schedule: Q01DX009 (ip), vehicle: saline with Tween-80.
Where [7] appears, read: endpoint: mean survival time, dose: 400.0 mg/kg/injection, schedule: Q04DX003 (ip), vehicle: saline with Tween-80.
Where [8] appears, read: endpoint: mean survival time, dose: 12.5 mg/kg/injection, schedule: Q04DX003 (ip), vehicle: saline with Tween-80.
[9] abbreviates: endpoint: mean survival time, dose: 25.0 mg/kg/injection, schedule: Q04DX003 (ip), vehicle: saline with Tween-80.

The structures appear in SMILES notation. Values joined by “and” are separate entries in the source; they are usually repeats but may differ in a detail not shown here. Equal entries are not always repeated. Toxic doses and inconclusive results are not listed.

On to `O=C(N1CCOCC1)C1(c2ccccc2)CCNCC1`, for which the T/C is, setting by setting: (endpoint: mean survival time, dose: 50.0 mg/kg/injection, schedule: Q01DX009 (ip), vehicle: saline) 93 % of control; under setting [1], 104 % of control.
Regarding `C(=C(c1ccccc1)c1ccccc1)=C(c1ccccc1)c1ccccc1`, the T/C runs as follows: under setting [2], 93 % of control; under setting [3], 100 % of control; under setting [4], 90 % of control; under setting [5], 97 % of control; under setting [6], 90 % of control; under setting [7], 95 % of control.
On to `CN(C)c1ccc(/C=[N+](\[O-])c2ccccc2)cc1`, for which the T/C was 92 % of control (endpoint: mean survival time, dose: 50.0 mg/kg/injection, schedule: Q01DX009 (ip), vehicle: saline with Tween-80); 103 % of control under setting [2]; 100 % of control under setting [4].
Turning to `CN(CCC#N)C(=O)Nc1ccc(Cl)cc1`, the T/C reads like this: (endpoint: mean survival time, dose: 100.0 mg/kg/injection, schedule: Q04DX002 (ip), vehicle: other) 106 % of control; (endpoint: mean survival time, dose: 200.0 mg/kg/injection, schedule: Q04DX002 (ip), vehicle: other) 101 % of control; (endpoint: mean survival time, dose: 400.0 mg/kg/injection, schedule: Q04DX002 (ip), vehicle: other) 106 % of control.
Take `O=C(OC1CCCCC1c1ccccc1)c1ccc([N+](=O)[O-])cc1` (stereo not given): the T/C under setting [3] was 90 % of control, the T/C under setting [5] is 98 % of control and the T/C under setting [7] was 90 % of control.
With `COC(=O)C1C(=O)CC2N(C)C1C(C)(C)C2(C)C` (stereo not given), the T/C runs as follows: (endpoint: mean survival time, dose: 100.0 mg/kg/injection, schedule: Q04DX002 (ip), vehicle: saline with Tween-80) 115 % of control; (endpoint: mean survival time, dose: 200.0 mg/kg/injection, schedule: Q04DX002 (ip), vehicle: saline with Tween-80) 107 % of control.
For `CN(C)C(=O)On1cccc1C#N`, the T/C was 95 % of control (endpoint: mean survival time, dose: 0.78 mg/kg/injection, schedule: Q01DX001 (ip), vehicle: saline); 98 % of control (endpoint: mean survival time, dose: 1.56 mg/kg/injection, schedule: Q01DX001 (ip), vehicle: saline); 98 % of control (endpoint: mean survival time, dose: 3.13 mg/kg/injection, schedule: Q01DX001 (ip), vehicle: saline).
On to `C=COCCN1CCN(CCCN2c3ccccc3Sc3ccc(C(F)(F)F)cc32)CC1`, for which the T/C under setting [8] is 113 % of control and the T/C under setting [9] is 113 % of control.
As to `Nc1nc(SSc2nc(N)nc3c2ncn3C2CC(O)C(CO)O2)c2ncn(C3CC(O)C(CO)O3)c2n1` (stereo not given), the T/C was 152 % of control (endpoint: mean survival time, dose: 2.3 mg/kg/injection, schedule: Q01DX009 (ip), vehicle: saline); 162 % of control (endpoint: mean survival time, dose: 4.7 mg/kg/injection, schedule: Q01DX009 (ip), vehicle: saline); 119 % of control (endpoint: mean survival time, dose: 18.8 mg/kg/injection, schedule: Q01DX009 (ip), vehicle: saline).
In the case of `CCOC(=O)Nc1cc(Nc2ccccc2)c2[nH]cnc2n1`, the T/C (endpoint: mean survival time, dose: 12.5 mg/kg/injection, schedule: Q01DX001 (ip), vehicle: Klucel (hydroxypropylcellulose) (HPC)) is 96 % of control; the T/C (endpoint: mean survival time, dose: 25.0 mg/kg/injection, schedule: Q01DX001 (ip), vehicle: Klucel (hydroxypropylcellulose) (HPC)) was 93 % of control; the T/C (endpoint: mean survival time, dose: 50.0 mg/kg/injection, schedule: Q01DX001 (ip), vehicle: Klucel (hydroxypropylcellulose) (HPC)) is 93 % of control; the T/C (endpoint: mean survival time, dose: 100.0 mg/kg/injection, schedule: Q01DX001 (ip), vehicle: Klucel (hydroxypropylcellulose) (HPC)) was 93 % of control; the T/C (endpoint: mean survival time, dose: 200.0 mg/kg/injection, schedule: Q01DX001 (ip), vehicle: Klucel (hydroxypropylcellulose) (HPC)) is 95 % of control; the T/C (endpoint: mean survival time, dose: 400.0 mg/kg/injection, schedule: Q01DX001 (ip), vehicle: Klucel (hydroxypropylcellulose) (HPC)) was 93 % of control.
Take `C[N+](C)(C)C1(Cc2ccc(Br)cc2)c2ccccc2-c2ccccc21`: the T/C is 88 % of control (endpoint: mean survival time, dose: 6.25 mg/kg/injection, schedule: Q04DX003 (ip), vehicle: saline with Tween-80); 88 % of control under setting [8]; 87 % of control under setting [9]; 92 % of control under setting [3].
Turning to `Cc1cc(C)c(C(=O)c2ccc(-c3ccccc3)cc2)c(C)c1`, the T/C runs as follows: under setting [2], 95 % of control; under setting [3], 98 % of control; under setting [4], 98 % of control; under setting [5], 106 % of control; under setting [6], 91 % of control; under setting [7], 98 % of control.
Take `c1ccc(P(CCNCCP(c2ccccc2)c2ccccc2)c2ccccc2)cc1`: the T/C was 101 % of control (endpoint: median survival time, dose: 25.0 mg/kg/injection, schedule: Q01DX009 (ip), vehicle: saline with Tween-80); 103 % of control (endpoint: median survival time, dose: 50.0 mg/kg/injection, schedule: Q01DX009 (ip), vehicle: saline with Tween-80); 103 % of control (endpoint: median survival time, dose: 100.0 mg/kg/injection, schedule: Q01DX009 (ip), vehicle: saline with Tween-80); 101 % of control (endpoint: median survival time, dose: 200.0 mg/kg/injection, schedule: Q01DX009 (ip), vehicle: saline with Tween-80).
In the case of `O=C(Oc1ccc(OC(=O)c2ccccc2)c2c1C(=O)C(CBr)=C(CBr)C2=O)c1ccccc1`, the T/C is 93 % of control (endpoint: mean survival time, dose: 0.75 mg/kg/injection, schedule: Q01DX009 (ip), vehicle: water); 101 % of control (endpoint: mean survival time, dose: 1.5 mg/kg/injection, schedule: Q01DX009 (ip), vehicle: water); 93 % of control and 97 % of control (endpoint: mean survival time, dose: 3.0 mg/kg/injection, schedule: Q01DX009 (ip), vehicle: water); 93 % of control and 95 % of control (endpoint: mean survival time, dose: 6.0 mg/kg/injection, schedule: Q01DX009 (ip), vehicle: water); 93 % of control (endpoint: mean survival time, dose: 12.0 mg/kg/injection, schedule: Q01DX009 (ip), vehicle: water); 86 % of control (endpoint: mean survival time, dose: 12.5 mg/kg/injection, schedule: Q01DX009 (ip), vehicle: water). The T/C (endpoint: mean survival time, dose: 24.0 mg/kg/injection, schedule: Q01DX009 (ip), vehicle: water) was 90 % of control; the T/C (endpoint: mean survival time, dose: 25.0 mg/kg/injection, schedule: Q01DX009 (ip), vehicle: water) is 91 % of control; the T/C (endpoint: mean survival time, dose: 50.0 mg/kg/injection, schedule: Q01DX009 (ip), vehicle: water) is 87 % of control; the T/C (endpoint: mean survival time, dose: 100.0 mg/kg/injection, schedule: Q01DX009 (ip), vehicle: water) was 100 % of control; the T/C (endpoint: mean survival time, dose: 200.0 mg/kg/injection, schedule: Q01DX009 (ip), vehicle: water) was 86 % of control.
With `NC(Cc1ccc([N+](=O)[O-])cc1)C(=O)O` (stereo not given), the T/C is 96 % of control under setting [1]; 97 % of control (endpoint: mean survival time, dose: 100.0 mg/kg/injection, schedule: Q04DX003 (ip), vehicle: saline); 98 % of control (endpoint: mean survival time, dose: 200.0 mg/kg/injection, schedule: Q01DX009 (ip), vehicle: saline); 100 % of control (endpoint: mean survival time, dose: 200.0 mg/kg/injection, schedule: Q04DX003 (ip), vehicle: saline); 94 % of control (endpoint: mean survival time, dose: 400.0 mg/kg/injection, schedule: Q01DX009 (ip), vehicle: saline); 103 % of control (endpoint: mean survival time, dose: 400.0 mg/kg/injection, schedule: Q04DX003 (ip), vehicle: saline).
Regarding `Nc1ccccc1Sc1ccncc1[N+](=O)[O-]`, the T/C under setting [2] was 96 % of control; the T/C under setting [3] is 90 % of control; the T/C under setting [4] is 100 % of control; the T/C under setting [5] is 95 % of control; the T/C under setting [6] is 101 % of control; the T/C under setting [7] is 97 % of control.
For `CC1CCCC(C)N1c1ccc(NC(=O)c2ccc(C(=O)Nc3ccc(N4C(C)CCCC4C)cc3)cc2)cc1` (stereo not given), for the setting “endpoint: mean survival time, dose: 100.0 mg/kg/injection, schedule: Q01DX001 (ip), vehicle: saline”, the T/C is 86 % of control.
With `Nc1ccc(CCc2ccccc2)cc1`, the T/C (endpoint: mean survival time, dose: 50.0 mg/kg/injection, schedule: Q04DX002 (ip), vehicle: saline with Tween-80) is 98 % of control and 105 % of control; the T/C (endpoint: mean survival time, dose: 50.0 mg/kg/injection, schedule: Q04DX003 (ip), vehicle: saline with Tween-80) was 104 % of control; the T/C under setting [3] was 100 % of control and 101 % of control and 107 % of control; the T/C under setting [5] was 92 % of control and 104 % of control.

The values are drawn from PubChem BioAssay AID256 (DTP/NCI, 2004).
